Publication PMC8161026, “Synthesis and Anticancer Activity Evaluation of 5-[2-Chloro-3-(4-nitrophenyl)-2-propenylidene]-4-thiazolidinones” (Molecules, 2021)

Assays:
[1] = tested on: RPMI-8226; assay: cells; conditions: Homo sapiens, RPMI-8226, 48 h; for CC50: read-out: LC50
[2] = tested on: TK-10; assay: NCI DTP 60 cell line screen, SRB; conditions: for GI50 / CC50: Homo sapiens, TK-10, 48 h; for CC50: read-out: LC50; for TGI: TK-10 (Renal Cancer), 48 h, SRB
[3] = tested on: BT-549; assay: NCI DTP 60 cell line screen, SRB; conditions: for TGI: BT-549 (Breast Cancer), 48 h, SRB; for GI50 / CC50: Homo sapiens, BT-549, 48 h; for CC50: read-out: LC50
[4] = tested on: UO-31; assay: NCI DTP 60 cell line screen, SRB; conditions: for GI50 / CC50: Homo sapiens, UO-31, 48 h; for CC50: read-out: LC50; for TGI: UO-31 (Renal Cancer), 48 h, SRB
[5] = tested on: SW-620; conditions: SW-620 (Colon Cancer), 48 h, SRB
[6] = tested on: SK-MEL-2; conditions: SK-MEL-2 (Melanoma), 48 h, SRB
[7] = tested on: NCI-H522; assay: NCI DTP 60 cell line screen, SRB
[8] = tested on: A549/ATCC; conditions: A549/ATCC (Non-Small Cell Lung Cancer), 48 h, SRB
[9] = tested on: CAKI-1; assay: NCI DTP 60 cell line screen, SRB; conditions: for TGI: CAKI-1 (Renal Cancer), 48 h, SRB; for GI50 / CC50: Homo sapiens, CAKI-1, 48 h; for CC50: read-out: LC50
[10] = tested on: 60 tumor cell lines; assay: NCI60 full panel MG_MID; conditions: for GI50 / CC50: Homo sapiens; for GI50: read-out: 60 lines MG_MID, GI50; for CC50: read-out: 60 lines MG_MID, LC50; for 60 lines MG_MID, TGI: mean over all cell lines
Experimental: At the first stage of biological activity study, the antitumor activity screening of the selected compounds 2b, 2c, 2f, 2h, and 2j was performed according to the NCI DTP (USA) standard protocol at the concentrations ranging from 10^−4 to 10^−8 M toward 60 tumor cell lines. The percentage of growth was evaluated spectrophotometrically versus controls not treated with test agents after 48 h exposure and using SRB protein assay to estimate cell viability or growth. Dose–response parameters were calculated for each cell line: GI50—molar concentration of the compound that inhibits 50% net cell growth; TGI—molar concentration of the compound leading to the total inhibition; and LC50—molar concentration of the compound leading to 50% net cell death. Furthermore, mean graph midpoints (MG_MID) were calculated for each of the parameters, giving an average activity parameter over all cell lines for the tested compound. For the MG_MID calculation, insensitive cell lines were included with the highest concentration tested.
Primary anticancer assay was performed on a panel of approximately sixty human tumor cell lines derived from nine neoplastic diseases, in accordance with the protocol of the Drug Evaluation Branch, National Cancer Institute, Bethesda. Tested compounds were added to the culture at a single concentration (10^−5 M) and the cultures were incubated for 48 h. End point determinations were made with a protein binding dye, sulforhodamine B (SRB). […] The percentage growth was evaluated spectrophotometrically versus controls not treated with test agents.
Dose–response parameters (GI50, TGI, LC50) were calculated for each compound. […] The drug concentration resulting in total growth inhibition (TGI) was calculated from Ti = Tz. The LC50 (concentration of drug resulting in a 50% reduction in the measured protein at the end of the drug treatment as compared to that at the beginning) indicating a net loss of cells following treatment was calculated from [(Ti − Tz)/Tz] × 100 = −50 (2). Values were calculated for each of these parameters if the level of activity was reached; however, if the effect was not reached or was excessive, the value for that parameter was expressed as more or less than the maximum or minimum concentration tested.

[11] = tested on: HOP-62; conditions: HOP-62 (Non-Small Cell Lung Cancer), 48 h, SRB
[12] = tested on: MALME-3M; assay: NCI DTP 60 cell line screen, SRB; conditions: 48 h; for GI50 / CC50: Homo sapiens, Malme-3M; for CC50: read-out: LC50; for TGI: MALME-3M (Melanoma), SRB
[13] = tested on: HCT-116; conditions: HCT-116 (Colon Cancer), 48 h, SRB
[14] = tested on: KM12; conditions: KM12 (Colon Cancer), 48 h, SRB
[15] = tested on: MDA-MB-435; assay: NCI DTP 60 cell line screen, SRB; conditions: for GI50 / CC50: Homo sapiens, MDA-MB-435, 48 h; for CC50: read-out: LC50; for TGI: MDA-MB-435 (Breast Cancer), 48 h, SRB
[16] = tested on: K-562; assay: cells; conditions: Homo sapiens, K562, 48 h; for CC50: read-out: LC50
[17] = tested on: EKVX; conditions: EKVX (Non-Small Cell Lung Cancer), 48 h, SRB
[18] = tested on: RPMI-8226; conditions: for TGI: RPMI-8226 (Leukemia), 48 h, SRB
[19] = tested on: UACC-62; assay: NCI DTP 60 cell line screen, SRB; conditions: for GI50 / CC50: Homo sapiens, UACC-62, 48 h; for CC50: read-out: LC50; for TGI: UACC-62 (Melanoma), 48 h, SRB
[20] = tested on: ACHN; assay: NCI DTP 60 cell line screen, SRB; conditions: 48 h; for TGI: ACHN (Renal Cancer), SRB; for GI50 / CC50: Homo sapiens, ACHN; for CC50: read-out: LC50
[21] = tested on: HCT-116; assay: cells; conditions: Homo sapiens, HCT-116, 48 h; for CC50: read-out: LC50
[22] = tested on: SNB-75; assay: cells; conditions: Homo sapiens, SNB-75, 48 h
[23] = tested on: SK-MEL-28; assay: cells; conditions: Homo sapiens, SK-MEL-28, 48 h
[24] = tested on: SK-MEL-28; conditions: SK-MEL-28 (Melanoma), 48 h, SRB

In the case of `O=C1/C(=C/C(Cl)=C/c2ccc([N+](=O)[O-])cc2)SC(=S)N1/N=C\C(Cl)=C\c1ccc([N+](=O)[O-])cc1` [Compound 2c, 5-[(Z,2Z)-2-Chloro-3-(4-nitrophenyl)-2-propenylidene]-3-[(Z,2Z)-2-chloro-3-(4-nitrophenyl)-2-propenylideneamino]-2-thioxo-4-thiazolidinone], the GI50 [1] is reported as 2.38 µM, the CC50 [1] is reported as > 100 µM and the GI50 [2] is reported as 28 µM. The CC50 [2] was > 100 µM, the TGI [2] was 69.6 µM and the TGI [3] was 76.0 µM. For the same molecule, the GI50 [3] was 27.3 µM, the CC50 [3] was > 100 µM and the GI50 [4] was 17.5 µM. The CC50 [4] was 59.1 µM, the TGI [4] was 32.2 µM and the TGI [5] was > 100 µM. For the same molecule, the TGI [6] was 36.4 µM, the GI50 ([7]; Homo sapiens, NCI-H522, 48 h) was 16.3 µM and the CC50 ([7]; Homo sapiens, NCI-H522, 48 h, read-out: LC50) was 66.2 µM. For the same molecule, the TGI ([7]; NCI-H522 (Non-Small Cell Lung Cancer), 48 h, SRB) was 32.9 µM, the TGI [8] was 42.6 µM and the TGI [9] was 11.2 µM. The GI50 [9] was 3.11 µM, the CC50 [9] was > 100 µM and the GI50 [10] was 18 µM. For the same molecule, the CC50 [10] was 81.7 µM, the “60 lines MG_MID, TGI” value [10] was 43.1 µM and the TGI [11] was 39.7 µM. For the same molecule, the GI50 [12] was 25 µM, the CC50 [12] was > 100 µM and the TGI [12] was 60.4 µM. It also gave a TGI [13] of 6.51 µM, a TGI [14] of 59.1 µM and a GI50 [15] of 20.3 µM. For the same molecule, the CC50 [15] was 86.3 µM, the TGI [15] was 41.9 µM and the GI50 [16] was 3.98 µM. The CC50 [16] was > 100 µM, the TGI [17] was 47.7 µM and the TGI [18] was 6.32 µM. It also gave a GI50 [19] of 13.6 µM, a CC50 [19] of 58 µM and a TGI [19] of 28.1 µM. For the same molecule, the TGI [20] was 29.7 µM, the GI50 [20] was 15.6 µM and the CC50 [20] was 56.4 µM. It also gave a GI50 [21] of 2.73 µM and a CC50 [21] of 23.3 µM.
With `O=C1/C(=C/C(Cl)=C/c2ccc([N+](=O)[O-])cc2)SC(=S)N1c1ccc(O)cc1` [Compound 2f, 5-[(Z,2Z)-2-Chloro-3-(4-nitrophenyl)-2-propenylidene]-3-(4-hydroxyphenyl)-2-thioxo-4-thiazolidinone] the GI50 [1] was < 0.01 µM, the CC50 [1] was > 100 µM and the GI50 [2] was 4.87 µM. The CC50 [2] was > 100 µM, the TGI [2] was 29.0 µM and the TGI [3] was 7.71 µM. The GI50 [3] was 1.55 µM, the CC50 [3] was > 100 µM and the GI50 [4] was 2.08 µM. The CC50 [4] was > 100 µM, the TGI [4] was 3.98 µM and the TGI [5] was 1.52 µM. The TGI [8] was 6.47 µM, the TGI [9] was > 100 µM and the GI50 [9] was 4.44 µM. For the same molecule, the CC50 [9] was > 100 µM, the GI50 [22] was 25.1 µM and the CC50 ([22]; read-out: LC50) was > 100 µM. For the same molecule, the GI50 [10] was 2.8 µM, the CC50 [10] was 80.8 µM and the “60 lines MG_MID, TGI” value [10] was 32.3 µM. It also gave a TGI [11] of 5.22 µM, a GI50 [12] of 6.53 µM and a CC50 [12] of 94.5 µM. For the same molecule, the TGI [12] was 27.6 µM, the TGI [13] was 2.96 µM and the TGI [14] was > 100 µM. The GI50 [15] was 3.5 µM, the CC50 [15] was > 100 µM and the TGI [15] was 7.71 µM. For the same molecule, the GI50 [16] was 0.521 µM, the CC50 [16] was > 100 µM and the GI50 [23] was 4.49 µM. The CC50 ([23]; read-out: LC50) was > 100 µM, the TGI [17] was 16.2 µM and the “TI (Therapeutic Index)” value ([18]; GI50 (normal blood lymphocyte)/GI50 (RPMI-8226)) was >10,000. The TGI [18] was 0.264 µM, the TGI [24] was 47.7 µM and the GI50 [19] was 1.69 µM. It also gave a CC50 [19] of 8.78 µM, a TGI [19] of 3.85 µM and a TGI [20] of 3.51 µM. It also gave a GI50 [20] of 1.7 µM, a CC50 [20] of 7.27 µM and a GI50 [21] of 1.27 µM. For the same molecule, the CC50 [21] was 6.92 µM.
